Reference: US12083101B2, “Biaryl derivatives as YAP/TAZ-TEAD protein-protein interaction inhibitors” (Novartis AG, priority 2020, dated 2024)
Like-named read-outs stand apart in the source and are kept apart here.

Key:
MKN-45/Ubc-luc cells [1] = assay: Proliferation assay (resazurin), MKN-45; assay type: cell-based; conditions: 72 hours incubation
Procedure: As a specificity control, MKN-45 cells were stably transduced with a Ubc-Luc reporter construct, in which constitutive expression of firefly luciferase is driven by the promoter of the ubiquitin C housekeeping gene.
(§1) Stock solutions of compounds were prepared at a concentration of 10 mM in DMSO and stored at 4° C. Where necessary to afford a full dose-response curve, the stock solutions were pre-diluted in DMSO to 1'000-fold the desired reduced start concentration. On the day after cell seeding, eleven 2-fold serial dilutions of each compound were dispensed directly into the cell assay plates using a HP 300D non-contact Digital Dispenser (TECAN, Mannedorf, Switzerland). The final concentration of DMSO was normalized to 0.1% in all wells.
(§2) The functional effect of compounds on cell proliferation was assessed using NCI-H2052 Tet-On shYAP_2371 pLenti6 MCAT_Luc and MKN-45/Ubc-luc cells by quantifying the reducing capacity of live cells using the redox indicator dye resazurin. […] For data analysis, the assay background value determined in wells containing medium, but no cells, was subtracted from all data points. […] The effect of a particular test compound concentration on cell proliferation/viability was expressed as percentage of day 0-corrected fluorescence reading obtained for cells treated with vehicle only (DMSO, final concentration 0.1%), which was set as 100%, whereas the fluorescence reading for wells containing medium only, but no cells, was set as −100%. Compound concentrations leading to half-maximal growth inhibition (GI50) were determined using standard four parameter curve fitting.

[2] = biological target: Avi-humanTEAD4 217-434 / Cy5 labeled humanYAP 60-100 (Homo sapiens (Human), UniProt Q15561); assay: TR-FRET YAP-TEAD4 in-vitro biochemical assay; assay type: binding; conditions: 1 nM Avi-humanTEAD4 217-434, 20 nM Cy5-humanYAP 60-100, 1 h room temperature
[3] = tested on: NCI-H2052 Tet-On shYAP_2371 pLenti6 MCAT_Luc cells; assay: Proliferation assay (resazurin), NCI-H2052; assay type: cell-based; conditions: 72 hours incubation
Procedure: (§3) This cell line was also transduced with a Tet-pLKO-puro-based construct mediating tetracycline-inducible expression of a short-hairpin directed against the 3′UTR of the YAP1 mRNA (5′-[…]-3′).
as §1, §2

MKN-45/Ubc-luc cells [4] = assay: Reporter gene specificity control (Ubc-luciferase), MKN-45
[5] = tested on: NCI-H2052 Tet-On shYAP_2371 pLenti6 MCAT_Luc cells (YAP-dependent transcription); assay: YAP reporter gene activity assay (MCAT-luciferase), NCI-H2052; assay type: cell-based; conditions: 24 hours incubation, BrightGlo luminescence
Procedure: as §3, §1
The ability of compounds to inhibit YAP-dependent transcription was assessed in NCI-H2052 Tet-On shYAP_2371 pLenti6 MCAT_Luc cells, while specificity (lack of unspecific inhibition of luciferase expression of activity) was assessed in MKN-45/Ubc-luc cells. […] Following incubation for 24 hours at 37° C., compound-mediated modulation of reporter-gene activity was quantified 5 min after addition of 20 μl BrightGlo (Promega, Cat #E2620), by measuring luminescence intensity on a multi-mode plate-reader (TECAN, Männedorf, Switzerland, Integration time 100 ms). For data analysis, the assay background value determined in wells containing medium, but no cells, was subtracted from all data points. Dose-dependent compound effects were expressed as % of vehicle-treated control (luminescence signal produced by cells receiving DMSO only) and IC50s calculated using a four-parametric fit model.

[6] = Homo sapiens, MKN-45, 24 h, read-out: Reporter gene assay MKN-45 IC50 [μM], MKN-45/Ubc-luc cells (YAP deleted, specificity control), 24 hours incubation
[7] = read-out: Reporter gene assay MKN-45 IC50, MKN-45/Ubc-luc cells (YAP deleted, specificity control), 24 hours incubation

Chain of Avi-humanTEAD4 217-434 / Cy5 labeled humanYAP 60-100 (Q15561 217-434): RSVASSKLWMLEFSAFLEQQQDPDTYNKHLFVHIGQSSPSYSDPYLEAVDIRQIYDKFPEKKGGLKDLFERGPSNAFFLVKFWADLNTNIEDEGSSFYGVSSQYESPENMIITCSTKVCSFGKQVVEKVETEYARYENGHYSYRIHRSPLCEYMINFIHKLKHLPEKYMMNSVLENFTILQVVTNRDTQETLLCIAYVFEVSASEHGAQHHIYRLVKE

CNC[C@]1(c2cccc(O)n2)Oc2cc(F)c(Cl)c(-c3c(C(N)=O)ccc(OC)c3F)c2[C@@H]1C (atropisomer, axis not shown) [Example 125, 2-((2R,3S,4S)-5-Chloro-6-fluoro-2-(6-hydroxypyridin-2-yl)-3-methyl-2-((methylamino)methyl)-2,3-dihydrobenzofuran-4-yl)-3-fluoro-4-methoxybenzamide]
GI50 (MKN-45/Ubc-luc cells [1]; Homo sapiens): > 7.5 µM
IC50 [2]: 0.011 µM
GI50 ([3]; Homo sapiens, NCI-H2052, 72 h): 1.18 µM
IC50 (MKN-45/Ubc-luc cells [4]; [6]): > 10 µM
IC50 ([5]; Homo sapiens, NCI-H2052, 24 h): 0.671 µM

CNC[C@@]1(c2ccccc2)Cc2c(ccc(Cl)c2-c2c(C(N)=O)ccc(OC)c2F)O1 (atropisomer, axis not shown) [Example 21, 2-((2S,4S)-5-Chloro-2-((methylamino)methyl)-2-phenyl-2,3-dihydrobenzofuran-4-yl)-3-fluoro-4-methoxybenzamide]
GI50 (MKN-45/Ubc-luc cells [1]; Homo sapiens): > 10 µM
IC50 [2]: 0.004 µM
GI50 ([3]; Homo sapiens, NCI-H2052, 72 h): 0.247 µM
IC50 (MKN-45/Ubc-luc cells [4]; [6]): > 10 µM
IC50 ([5]; Homo sapiens, NCI-H2052, 24 h): 0.154 µM

NC(=O)c1ccc(OC(F)F)c(F)c1-c1c(Cl)ccc2c1[C@H](O)[C@@](CN[C@H]1CC[C@H](O)CC1)(c1ccccc1)O2 (relative stereo) [Example 94a, 2-((2S,3S,4S)-5-chloro-3-hydroxy-2-((((trans)-4-hydroxycyclohexyl)amino)methyl)-2-phenyl-2,3-dihydrobenzofuran-4-yl)-4-(difluoromethoxy)-3-fluorobenzamide]
GI50 (MKN-45/Ubc-luc cells [1]): > 10 µM
IC50 [2]: 0.002 µM
GI50 [3]: 0.068 µM
IC50 (MKN-45/Ubc-luc cells [4]; [7]): > 10 µM
IC50 [5]: 0.045 µM

CS(=O)(=O)[C@H]1CC[C@H](NC[C@@]2(c3ccccc3)Cc3c(cc(F)c(Cl)c3-c3c(C(N)=O)ccc(OC(F)F)c3F)O2)CC1 [Example 54b, 2-((2S,4S)-5-chloro-6-fluoro-2-((((trans)-4-(methylsulfonyl)cyclohexyl)amino)methyl)-2-phenyl-2,3-dihydrobenzofuran-4-yl)-4-(difluoromethoxy)-3-fluorobenzamide]
GI50 (MKN-45/Ubc-luc cells [1]; Homo sapiens): > 10 µM
IC50 [2]: 0.022 µM
GI50 ([3]; Homo sapiens, NCI-H2052, 72 h): 0.258 µM
IC50 (MKN-45/Ubc-luc cells [4]; [6]): > 10 µM
IC50 ([5]; Homo sapiens, NCI-H2052, 24 h): 0.118 µM

C[C@H](O)COc1ccc(C(N)=O)c(-c2c(Cl)c(F)cc3c2[C@H](C)[C@@](CN[C@H]2CC[C@](C)(O)CC2)(c2ccccc2)O3)c1F (atropisomer, axis not shown) [Example 114a, 2-((2S,3S,4S)-5-chloro-6-fluoro-2-((((trans)-4-hydroxy-4-methylcyclohexyl)amino)methyl)-3-methyl-2-phenyl-2,3-dihydrobenzofuran-4-yl)-3-fluoro-4-((S)-2-hydroxypropoxy)benzamide]
GI50 (MKN-45/Ubc-luc cells [1]; Homo sapiens): > 10 µM
IC50 [2]: 0.002 µM
GI50 ([3]; Homo sapiens, NCI-H2052, 72 h): 0.023 µM
IC50 (MKN-45/Ubc-luc cells [4]; [6]): > 10 µM
IC50 ([5]; Homo sapiens, NCI-H2052, 24 h): 0.018 µM

CC(=O)NC1CCC(NC[C@@]2(c3ccccc3)Cc3c(cc(F)c(Cl)c3-c3c(C(N)=O)ccc(OC(F)F)c3F)O2)CC1 (single isomer, unassigned) [Example 56a]
GI50 (MKN-45/Ubc-luc cells [1]; Homo sapiens): > 10 µM
IC50 [2]: 0.002 µM
GI50 ([3]; Homo sapiens, NCI-H2052, 72 h): 0.195 µM
IC50 (MKN-45/Ubc-luc cells [4]; [6]): > 10 µM
IC50 [5]: 0.07 µM

NC(=O)c1ccc(OCCO)c(F)c1-c1c(Cl)c(F)cc2c1C[C@@](CN[C@H]1C[C@@H](C(F)F)C1)(c1ccccc1)O2 (relative stereo) [Example 140a, 2-((2S,4S)-5-Chloro-2-((((cis)-3-(difluoromethyl)cyclobutyl)amino)methyl)-6-fluoro-2-phenyl-2,3-dihydrobenzofuran-4-yl)-3-fluoro-4-(2-hydroxyethoxy)benzamide]
GI50 (MKN-45/Ubc-luc cells [1]): > 10 µM
IC50 [2]: 0.004 µM
GI50 [3]: 0.028 µM
IC50 (MKN-45/Ubc-luc cells [4]; [7]): > 10 µM
IC50 [5]: 0.023 µM

C[C@H]1c2c(cc(F)c(Cl)c2-c2c(C(N)=O)cnc(OCCO)c2F)O[C@]1(CN[C@H]1CC[C@](C)(O)CC1)c1ccccc1 (atropisomer, axis not shown) [Example 119]
GI50 (MKN-45/Ubc-luc cells [1]; Homo sapiens): > 10 µM
IC50 [2]: 0.002 µM
GI50 ([3]; Homo sapiens, NCI-H2052, 72 h): 0.028 µM
IC50 (MKN-45/Ubc-luc cells [4]; [6]): > 10 µM
IC50 ([5]; Homo sapiens, NCI-H2052, 24 h): 0.022 µM

COc1ccc(C(N)=O)c(-c2c(Cl)ccc3c2[C@H](O)[C@@](CN)(c2ccccn2)O3)c1F (atropisomer, axis not shown) [Example 89, 2-((2R,3S,4S)-2-(Aminomethyl)-5-chloro-3-hydroxy-2-(pyridin-2-yl)-2,3-dihydrobenzofuran-4-yl)-3-fluoro-4-methoxybenzamide]
GI50 (MKN-45/Ubc-luc cells [1]; Homo sapiens): > 10 µM
IC50 [2]: 0.019 µM
GI50 ([3]; Homo sapiens, NCI-H2052, 72 h): 1.6 µM
IC50 (MKN-45/Ubc-luc cells [4]; [6]): > 10 µM
IC50 ([5]; Homo sapiens, NCI-H2052, 24 h): 0.596 µM

NC[C@@]1(c2ccccc2)Cc2c(cc(F)c(Cl)c2-c2c(C(N)=O)ccc(OCCO)c2F)O1 (atropisomer, axis not shown) [Example 38, 2-((2S,4S)-2-(aminomethyl)-5-chloro-6-fluoro-2-phenyl-2,3-dihydrobenzofuran-4-yl)-3-fluoro-4-(2-hydroxyethoxy)benzamide]
GI50 (MKN-45/Ubc-luc cells [1]; Homo sapiens): > 10 µM
IC50 [2]: 0.002 µM
GI50 ([3]; Homo sapiens, NCI-H2052, 72 h): 0.029 µM
IC50 (MKN-45/Ubc-luc cells [4]; [6]): > 10 µM
IC50 ([5]; Homo sapiens, NCI-H2052, 24 h): 0.024 µM

NC[C@@]1(c2ccccc2)Cc2c(cc(F)c(Cl)c2-c2c(C(N)=O)cnc(OCCO)c2F)O1 (atropisomer, axis not shown) [Example 43, 4-((2S,4S)-2-(Aminomethyl)-5-chloro-6-fluoro-2-phenyl-2,3-dihydrobenzofuran-4-yl)-5-fluoro-6-(2-hydroxyethoxy)nicotinamide]
GI50 (MKN-45/Ubc-luc cells [1]; Homo sapiens): > 10 µM
IC50 [2]: 0.005 µM
GI50 ([3]; Homo sapiens, NCI-H2052, 72 h): 0.094 µM
IC50 (MKN-45/Ubc-luc cells [4]; [6]): > 10 µM
IC50 ([5]; Homo sapiens, NCI-H2052, 24 h): 0.047 µM

NC[C@@]1(c2ccccc2)Cc2c(cc(F)c(Cl)c2-c2c(F)cccc2C(N)=O)N1 (atropisomer, axis not shown) [Example 134, 2-((2S,4S)-2-(aminomethyl)-5-chloro-6-fluoro-2-phenylindolin-4-yl)-3-fluorobenzamide]
GI50 (MKN-45/Ubc-luc cells [1]; Homo sapiens): > 10 µM
IC50 [2]: 0.074 µM
GI50 ([3]; Homo sapiens, NCI-H2052, 72 h): 1.57 µM
IC50 (MKN-45/Ubc-luc cells [4]; [6]): > 10 µM
IC50 ([5]; Homo sapiens, NCI-H2052, 24 h): 2.31 µM

COc1ncc(C(N)=O)c(-c2c(Cl)c(F)cc3c2C[C@@](CN)(c2ccccc2)O3)c1F (atropisomer, axis not shown) [Example 42, 4-((2S,4S)-2-(aminomethyl)-5-chloro-6-fluoro-2-phenyl-2,3-dihydrobenzofuran-4-yl)-5-fluoro-6-methoxynicotinamide]
GI50 (MKN-45/Ubc-luc cells [1]; Homo sapiens): 9.4 µM
IC50 [2]: 0.006 µM
GI50 ([3]; Homo sapiens, NCI-H2052, 72 h): 0.493 µM
IC50 (MKN-45/Ubc-luc cells [4]; [6]): > 10 µM
IC50 ([5]; Homo sapiens, NCI-H2052, 24 h): 0.391 µM

CN(C)C(=O)C1CCC(NC[C@@]2(c3ccccc3)Cc3c(cc(F)c(Cl)c3-c3c(C(N)=O)ccc(OC(F)F)c3F)O2)CC1 (single isomer, unassigned) [Example 58b]
GI50 (MKN-45/Ubc-luc cells [1]): > 10 µM
IC50 [2]: 0.006 µM
GI50 [3]: 0.167 µM
IC50 (MKN-45/Ubc-luc cells [4]; [7]): > 10 µM
IC50 [5]: 0.104 µM

CO[C@H]1c2c(cc(F)c(Cl)c2-c2c(C(N)=O)ccc(OCCO)c2F)O[C@]1(CN)c1ccccc1 (atropisomer, axis not shown) [Example 101, 2-((2S,3S,4S)-2-(Aminomethyl)-5-chloro-6-fluoro-3-methoxy-2-phenyl-2,3-dihydrobenzofuran-4-yl)-3-fluoro-4-(2-hydroxyethoxy)benzamide]
GI50 (MKN-45/Ubc-luc cells [1]; Homo sapiens): > 10 µM
GI50 ([3]; Homo sapiens, NCI-H2052, 72 h): 0.106 µM
IC50 (MKN-45/Ubc-luc cells [4]; [6]): > 10 µM
IC50 ([5]; Homo sapiens, NCI-H2052, 24 h): 0.067 µM

CNC(=O)c1ccc(OCCO)c(F)c1-c1c(Cl)c(F)cc2c1C[C@@](CN)(c1ccccc1)O2 (atropisomer, axis not shown) [Example 44, 2-((2S,4S)-2-(Aminomethyl)-5-chloro-6-fluoro-2-phenyl-2,3-dihydrobenzofuran-4-yl)-3-fluoro-4-(2-hydroxyethoxy)-N-methylbenzamide]
GI50 (MKN-45/Ubc-luc cells [1]; Homo sapiens): > 10 µM
GI50 ([3]; Homo sapiens, NCI-H2052, 72 h): 0.109 µM
IC50 (MKN-45/Ubc-luc cells [4]; [6]): > 10 µM
IC50 ([5]; Homo sapiens, NCI-H2052, 24 h): 0.069 µM
